Test [1] in a line: NIH-3T3 fibroblast cytotoxicity, dose response, cytotoxicity control, cell-based, fluorescence, Alamar Blue, secondary assay (AID 2327).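 Further: NIH-3T3 mouse fibroblasts cultured with fluconazole at 8 µg/mL.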 The class given is functional.
A short description of test [2]: C. albicans growth with fluconazole, confirmation, fluorescence, retest (AID 2467). In kind it is functional, cell-based.
The next test has as its target Large T antigen (Simian virus 40, UniProt P03070). In kind it is functional, Betapolyomavirus macacae.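 Further: Confirmatory-stage PubChem screen for compounds that inhibit SV40 T antigen.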
In test [3] the target is Serine/threonine-protein phosphatase (Candida dubliniensis (strain CD36 / CBS 7987 / NCPF 3949 / NRRLY-17841) (Yeast), UniProt B9W6M3). Put plainly: calcineurin pathway inhibitors in yeast reporter, dose response, S. cerevisiae, CDRE-lacZ, luminescence, secondary (AID 2388).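 Further: yeast reporter cells carrying a calcineurin-responsive lacZ construct stimulated with calcium chloride; luminescent beta-galactosidase reporter signal in whole cells rather than isolated phosphatase activity; potency for inhibition where a drop in reporter signal means calcineurin blockade.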 The class given is functional, cell-based.
Serine/threonine-protein phosphatase, sequence (B9W6M3 whole entry): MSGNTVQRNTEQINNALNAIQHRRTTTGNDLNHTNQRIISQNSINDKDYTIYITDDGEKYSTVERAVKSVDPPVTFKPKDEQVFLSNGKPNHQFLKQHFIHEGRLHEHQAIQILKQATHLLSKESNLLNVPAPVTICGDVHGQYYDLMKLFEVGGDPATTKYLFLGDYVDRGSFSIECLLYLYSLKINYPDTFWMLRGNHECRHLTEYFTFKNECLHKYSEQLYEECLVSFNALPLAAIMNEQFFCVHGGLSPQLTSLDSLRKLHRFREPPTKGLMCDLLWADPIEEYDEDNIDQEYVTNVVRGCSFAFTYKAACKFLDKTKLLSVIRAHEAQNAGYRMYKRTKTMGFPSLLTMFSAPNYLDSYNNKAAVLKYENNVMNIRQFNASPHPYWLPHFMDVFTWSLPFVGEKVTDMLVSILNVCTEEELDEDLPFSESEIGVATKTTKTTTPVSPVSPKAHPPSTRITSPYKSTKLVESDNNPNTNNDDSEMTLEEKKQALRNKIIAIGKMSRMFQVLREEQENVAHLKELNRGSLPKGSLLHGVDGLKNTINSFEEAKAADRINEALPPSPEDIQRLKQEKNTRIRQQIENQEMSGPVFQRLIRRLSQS
Test [4] deals with ATP-dependent molecular chaperone HSP82 (Candida albicans (strain WO-1) (Yeast), UniProt C4YTQ8). In words: loss of DOC-induced GRE-beta-galactosidase reporter signal, dose response, Hsp90 inhibitor project, S. cerevisiae, luminescence (AID 2400).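 Further: beta-galactosidase luminescence from glucocorticoid response element reporter as proxy for Hsp90 function; inhibitor potency where signal loss means Hsp90 inhibition.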 The class given is functional, cell-based.
ATP-dependent molecular chaperone HSP82, sequence (C4YTQ8 whole entry): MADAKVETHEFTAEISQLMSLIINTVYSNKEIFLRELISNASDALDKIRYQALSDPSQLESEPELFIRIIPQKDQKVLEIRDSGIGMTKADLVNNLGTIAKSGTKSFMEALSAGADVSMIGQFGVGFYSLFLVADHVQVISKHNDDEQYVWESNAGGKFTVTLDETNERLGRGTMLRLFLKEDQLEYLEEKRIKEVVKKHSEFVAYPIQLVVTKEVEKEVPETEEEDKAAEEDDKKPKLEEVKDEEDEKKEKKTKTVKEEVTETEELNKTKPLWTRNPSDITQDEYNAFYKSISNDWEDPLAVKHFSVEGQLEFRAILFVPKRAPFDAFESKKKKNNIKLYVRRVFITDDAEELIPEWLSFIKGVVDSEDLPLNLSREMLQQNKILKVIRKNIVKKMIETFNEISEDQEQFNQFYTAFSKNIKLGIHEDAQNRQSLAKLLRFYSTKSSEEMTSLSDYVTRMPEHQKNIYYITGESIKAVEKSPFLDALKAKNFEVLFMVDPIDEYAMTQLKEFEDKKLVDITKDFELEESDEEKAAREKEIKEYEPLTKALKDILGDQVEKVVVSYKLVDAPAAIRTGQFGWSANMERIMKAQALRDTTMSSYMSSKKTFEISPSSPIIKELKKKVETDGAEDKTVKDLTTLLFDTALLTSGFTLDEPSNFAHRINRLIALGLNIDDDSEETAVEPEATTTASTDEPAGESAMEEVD
Test [5] concerns the target Glycogen synthase kinase-3 alpha (Homo sapiens, UniProt P49840). Put plainly: Inhibition of Human GSK-3 alpha Activity Measured in Biochemical System Using Microfluidics - 2063-06_Inhibitor_Dose_DryPowder_Activity_Set2. [Related pubchem assays (depositor defined):AID2709].
For test [6], the target named is Glycogen synthase kinase-3 beta (Homo sapiens, UniProt P49841). In words: Inhibition of Human GSK-3 beta Activity Measured in Biochemical System Using Microfluidics - 2063-05_Inhibitor_Dose_DryPowder_Activity_Set2. [Related pubchem assays (depositor defined):AID2709].
Glycogen synthase kinase-3 beta, sequence (P49841 whole entry): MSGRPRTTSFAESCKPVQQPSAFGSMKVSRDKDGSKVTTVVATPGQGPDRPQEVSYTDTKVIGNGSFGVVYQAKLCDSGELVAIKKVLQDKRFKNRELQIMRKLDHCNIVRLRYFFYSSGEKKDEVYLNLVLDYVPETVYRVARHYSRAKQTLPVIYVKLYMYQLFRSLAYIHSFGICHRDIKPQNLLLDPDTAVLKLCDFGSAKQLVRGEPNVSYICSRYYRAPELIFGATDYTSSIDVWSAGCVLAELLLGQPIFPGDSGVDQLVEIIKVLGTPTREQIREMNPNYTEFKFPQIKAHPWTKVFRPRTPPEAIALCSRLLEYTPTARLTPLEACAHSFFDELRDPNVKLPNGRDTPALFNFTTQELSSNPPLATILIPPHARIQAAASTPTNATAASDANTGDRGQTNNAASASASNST
Test [7] has as its target Cyclin-dependent kinase 5/CDK5 activator 1 (Homo sapiens, UniProt Q00535). Put plainly: CDK5-p25 kinase inhibitors, specificity check, dose response, selectivity assay for GSK-3 alpha inhibitor project, biochemical, microfluidic mobility shift, dry powder (AID 588430).
For test [8], the system named is Candida albicans. Put plainly: growth inhibition of resistant C. albicans, dose response, CaCi-8 strain, fluconazole, dry powder, set 4 (AID 488950). In kind it is functional, organism-based.
Test [9] relates to Candida albicans. Put plainly: C. albicans growth inhibition with fluconazole, dose response, antifungal resistance reversal project, CaCi-2 strain, Alamar Blue, dry powder, set 2 (AID 488930). The class given is functional, organism-based.
For test [10], the system named is Candida albicans. In words: fluconazole resistance reversal in C. albicans, dose response, CaCi-2 strain, Alamar Blue, dry powder, set 4 (AID 488943). The class given is functional, organism-based.
Test [11] relates to Candida albicans. In words: growth inhibition of azole-resistant C. albicans, dose response, CaCi-8 strain, Alamar Blue, dry powder, set 2 (AID 488909). In kind it is functional, organism-based.
For the next test, the system named is CHO-K1. Put plainly: Counterscreen for antagonists of the orexin 1 receptor (OX1R; HCRTR1): Homogeneous time resolved fluorescence (HTRF)-based cell-based dose response assay to identify antagonists of the parental CHO-K1 cell line. [Related pubchem assays (depositor defined):AID434989, AID435008, AID463079, AID485270, AID492963, AID492964, AID492965, AID493232, AID504699, AID504701]. Conditions: Cricetulus griseus. The class given is functional.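 Further: potency for inhibition of ATP-stimulated IP1 production as antagonists.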

Test [12] in a line: Counterscreen for antagonists of the orexin 1 receptor (OX1R; HCRTR1): Fluorescence-based cell-based high throughput dose response assay to identify antagonists of the parental CHO cell line. [Related pubchem assays (depositor defined):AID434989, AID435008, AID463079, AID485270, AID492963, AID492964, AID492965, AID493232, AID504699, AID504701]. The class given is functional.

Test [13] concerns the target T1, Orexin/Hypocretin receptor type 1 (Homo sapiens, UniProt O43613).
T1 sequence (O43613 whole entry): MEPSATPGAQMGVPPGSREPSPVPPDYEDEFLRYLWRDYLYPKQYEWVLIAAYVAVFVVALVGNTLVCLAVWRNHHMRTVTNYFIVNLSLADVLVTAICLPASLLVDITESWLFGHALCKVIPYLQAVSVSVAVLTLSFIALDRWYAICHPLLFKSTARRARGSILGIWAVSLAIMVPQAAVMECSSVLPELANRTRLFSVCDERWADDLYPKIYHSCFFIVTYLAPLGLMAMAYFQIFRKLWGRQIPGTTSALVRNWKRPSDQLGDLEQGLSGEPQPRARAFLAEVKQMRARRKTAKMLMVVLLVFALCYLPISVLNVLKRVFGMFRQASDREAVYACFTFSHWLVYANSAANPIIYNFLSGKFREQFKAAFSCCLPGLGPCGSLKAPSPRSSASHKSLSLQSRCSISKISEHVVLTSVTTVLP
Put plainly: Homogeneous Time Resolved Fluorescence (HTRF)-based cell-based high throughput dose response assay for antagonists of the orexin 1 receptor (OX1R; HCRTR1). [Related pubchem assays (depositor defined):AID434989, AID435008, AID463079, AID485270, AID492963, AID492964, AID492965, AID493232, AID504717, AID504718]. The class given is functional.

The target of test [14] is T1, Orexin/Hypocretin receptor type 1. In words: Fluorescence-based cell-based high throughput dose response assay for antagonists of the orexin 1 receptor (OX1R; HCRTR1). [Related pubchem assays (depositor defined):AID434989, AID435008, AID463079, AID485270, AID492963, AID492964, AID492965, AID493232, AID504717, AID504718]. In kind it is functional.
Test [15] deals with T2, Orexin receptor type 2 (Homo sapiens, UniProt O43614). In words: Counterscreen assay for antagonists of the orexin 1 receptor (OX1R; HCRTR1): Fluorescence-based cell-based dose response assay for antagonists of the orexin 2 receptor (OX2R; HCRTR2), run by assay provider. In kind it is functional.
T2 sequence (O43614 whole entry): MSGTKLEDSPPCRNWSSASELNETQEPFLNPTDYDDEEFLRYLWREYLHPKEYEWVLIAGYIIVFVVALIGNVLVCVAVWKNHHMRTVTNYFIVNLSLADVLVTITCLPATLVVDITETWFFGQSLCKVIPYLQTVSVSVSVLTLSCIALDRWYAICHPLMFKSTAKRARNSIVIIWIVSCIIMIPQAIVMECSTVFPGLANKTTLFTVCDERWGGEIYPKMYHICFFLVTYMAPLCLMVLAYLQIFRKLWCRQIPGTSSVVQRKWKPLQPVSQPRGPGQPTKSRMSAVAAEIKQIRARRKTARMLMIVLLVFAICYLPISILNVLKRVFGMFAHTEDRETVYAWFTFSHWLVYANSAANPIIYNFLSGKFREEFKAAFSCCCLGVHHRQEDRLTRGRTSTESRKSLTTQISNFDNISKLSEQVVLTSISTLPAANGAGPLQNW
Test [16] addresses T2, Orexin receptor type 2. In words: Counterscreen assay for antagonists of the orexin 1 receptor (OX1R; HCRTR1): Homogeneous Time Resolved Fluorescence (HTRF)-based cell-based dose response assay for antagonists of the orexin 2 receptor (OX2R; HCRTR2), run by assay provider. The class given is functional.
For the next test, the system named is Jurkat. In words: SAR Analysis of small molecule inhibitors of […] specific antigen receptor-induced NF-kB activation in a Jurkat cell line using a luminescence assay - Set 3. [Related pubchem assays (depositor defined):AID435022, AID435025, AID465]. The class given is functional, cell-based. Conditions: Homo sapiens.
Test [17] has as its system HEK293. Put plainly: SAR Analysis of small molecule inhibitors of B-cell specific antigen receptor-induced NF-kB activation in a HEK-293T cell line using a luminescence assay - Set 2. [Related pubchem assays (depositor defined):AID435022, AID435025, AID489021]. In kind it is functional, cell-based. The settings on record: Homo sapiens.
In test [18] the test system is HEK293. In words: cytotoxicity in HEK293T NF-kB-Luc cells, SAR follow-up, cytotoxicity control for NF-kB activator project, cell-based, resazurin fluorescence (AID 493251). In kind it is functional. Conditions: Homo sapiens.
A further test addresses DNA topoisomerase (Yersinia pestis, UniProt A0A2S9PM60). Put plainly: Y. pestis Topo-I inhibitors, cleavage product readout, dose response, biochemical, cherry-pick (AID 588525).
The next test has as its system CHO. Put plainly: cytotoxicity in TLR9-MyD88 CHO cells, dose response, cytotoxicity control for TLR9-MyD88 binding inhibitor project, cell-based, luminescence (AID 588339).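 Further: CHO cells stably coexpressing TLR9 and MyD88 fusions from primary screen; compound exposure lasted 48 hours before viability readout.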 The class given is functional, hamster. Conditions: Cricetulus griseus.
The target of test [19] is T3, Endoribonuclease toxin MazF (Escherichia coli K-12, UniProt P0AE70). In words: MazF toxin RNase activators, dose response, biochemical, fluorescence, single-stranded RNA substrate, uHTS hits (AID 588481). In kind it is functional.
T3 sequence (P0AE70 whole entry): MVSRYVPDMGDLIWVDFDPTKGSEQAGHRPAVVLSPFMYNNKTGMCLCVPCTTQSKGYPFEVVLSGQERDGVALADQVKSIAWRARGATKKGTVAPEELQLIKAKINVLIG
The next test concerns the target Beta Lactamase (Pseudomonas aeruginosa, UniProt Q932Y6). Put plainly: beta-lactamase reporter inhibitor potency, dose response, artefact control for TLR9-MyD88 binding inhibitor project, BLA reporter cells, FRET fluorescence (AID 588341).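 Further: cell based assay in CHO-K1 cells stably expressing beta-lactamase.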 The class given is cell-based.
In test [20] the target is T3, Endoribonuclease toxin MazF. Put plainly: fluorescent RNA oligo signal without MazF, dose response, counter-screen for MazEF activator project, biochemical, fluorescence, single-stranded RNase substrate (AID 588502). In kind it is functional.
Test [21] deals with Luciferin 4-monooxygenase (Photuris pensylvanica, UniProt Q27757). Put plainly: firefly luciferase enzyme inhibitors, dose response, counter-screen for HSF-1 reporter inhibitor project, biochemical, Cell Titer Glo, luminescence, cherry-picks (AID 588847).
A short description of test [22]: microbe, parasite or virus in culture. The class given is functional. Conditions: Mycobacterium tuberculosis.
Test [23] is described as follows: Luminescence Cell-Based Dose Retest to Confirm Inhibitors of Cancer Stem Cells. [Related pubchem assays (depositor defined):AID2717, AID2721]. In kind it is functional. Conditions: Homo sapiens.
Test [24] has as its target T4, Short transient receptor potential channel 4 (Mus musculus, UniProt Q9QUQ5).
T4 sequence (Q9QUQ5 whole entry): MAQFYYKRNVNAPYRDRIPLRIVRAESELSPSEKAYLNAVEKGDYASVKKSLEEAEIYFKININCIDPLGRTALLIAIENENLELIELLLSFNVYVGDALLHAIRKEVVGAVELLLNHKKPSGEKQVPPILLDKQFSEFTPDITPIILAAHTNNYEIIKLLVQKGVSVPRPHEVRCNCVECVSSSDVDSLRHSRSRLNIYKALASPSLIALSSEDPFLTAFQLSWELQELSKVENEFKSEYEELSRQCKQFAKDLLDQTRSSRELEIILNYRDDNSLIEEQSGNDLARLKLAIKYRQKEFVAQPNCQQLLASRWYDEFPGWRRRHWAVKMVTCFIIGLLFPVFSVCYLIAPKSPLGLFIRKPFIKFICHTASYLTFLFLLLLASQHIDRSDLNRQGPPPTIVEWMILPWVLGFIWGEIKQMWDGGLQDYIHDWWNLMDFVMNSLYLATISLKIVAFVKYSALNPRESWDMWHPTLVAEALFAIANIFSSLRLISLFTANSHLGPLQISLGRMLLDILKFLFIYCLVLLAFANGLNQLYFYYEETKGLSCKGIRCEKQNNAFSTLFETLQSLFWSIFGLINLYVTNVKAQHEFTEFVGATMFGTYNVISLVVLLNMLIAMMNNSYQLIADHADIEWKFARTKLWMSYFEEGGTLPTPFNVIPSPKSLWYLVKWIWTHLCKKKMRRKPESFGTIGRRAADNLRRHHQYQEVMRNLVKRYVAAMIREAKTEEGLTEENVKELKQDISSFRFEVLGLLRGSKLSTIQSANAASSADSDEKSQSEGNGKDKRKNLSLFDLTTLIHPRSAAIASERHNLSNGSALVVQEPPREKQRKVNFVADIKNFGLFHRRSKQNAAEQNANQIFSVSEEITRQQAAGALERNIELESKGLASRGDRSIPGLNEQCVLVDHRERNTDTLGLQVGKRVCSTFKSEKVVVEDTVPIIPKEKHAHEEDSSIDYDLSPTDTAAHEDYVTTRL
In words: mouse TRPC4 channel inhibitors, dose response, cell-based, HEK293 TRPC4/mu-opioid, Fluo-4 calcium (AID 434942).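 Further: potency of inhibitors blocking the TRPC4 calcium response.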 In kind it is functional.

The nature of test [25]: A Cell Based Secondary Assay to Explore Cytotoxicity in THP-1 Cells of Compounds that Modulate Mycobacterium tuberculosis in Media Containing Glycerol versus Media without Glycerol (2). The class given is functional.
Test [26] is described as follows: Vero cell cytotoxicity, cytotoxicity control for M. tuberculosis inhibitor project, purified and synthesized samples, set 3 (AID 504684). The class given is functional. Conditions: […].
The nature of test [27]: A Cell Based Secondary Assay to Explore Cytotoxicity in HepG2 Cells of Compounds that Modulate Mycobacterium tuberculosis in Media Containing Glycerol versus Media without Glycerol (2). The class given is functional.

We go through 9 compounds from ChEMBL document CHEMBL1201862, “PubChem BioAssay data set” (2004).

Activity calls are given as the source filed them.

Beta Lactamase, sequence (Q932Y6 whole entry): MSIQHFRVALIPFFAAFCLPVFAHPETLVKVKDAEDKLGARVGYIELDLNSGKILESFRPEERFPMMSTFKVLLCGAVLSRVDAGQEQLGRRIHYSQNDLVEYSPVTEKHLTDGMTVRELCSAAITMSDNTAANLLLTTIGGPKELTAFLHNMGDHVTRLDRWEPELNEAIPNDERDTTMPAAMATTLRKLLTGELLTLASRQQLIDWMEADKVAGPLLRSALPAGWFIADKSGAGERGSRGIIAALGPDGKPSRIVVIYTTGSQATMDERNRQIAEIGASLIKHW
DNA topoisomerase, sequence (A0A2S9PM60 whole entry, the tested form may be a part): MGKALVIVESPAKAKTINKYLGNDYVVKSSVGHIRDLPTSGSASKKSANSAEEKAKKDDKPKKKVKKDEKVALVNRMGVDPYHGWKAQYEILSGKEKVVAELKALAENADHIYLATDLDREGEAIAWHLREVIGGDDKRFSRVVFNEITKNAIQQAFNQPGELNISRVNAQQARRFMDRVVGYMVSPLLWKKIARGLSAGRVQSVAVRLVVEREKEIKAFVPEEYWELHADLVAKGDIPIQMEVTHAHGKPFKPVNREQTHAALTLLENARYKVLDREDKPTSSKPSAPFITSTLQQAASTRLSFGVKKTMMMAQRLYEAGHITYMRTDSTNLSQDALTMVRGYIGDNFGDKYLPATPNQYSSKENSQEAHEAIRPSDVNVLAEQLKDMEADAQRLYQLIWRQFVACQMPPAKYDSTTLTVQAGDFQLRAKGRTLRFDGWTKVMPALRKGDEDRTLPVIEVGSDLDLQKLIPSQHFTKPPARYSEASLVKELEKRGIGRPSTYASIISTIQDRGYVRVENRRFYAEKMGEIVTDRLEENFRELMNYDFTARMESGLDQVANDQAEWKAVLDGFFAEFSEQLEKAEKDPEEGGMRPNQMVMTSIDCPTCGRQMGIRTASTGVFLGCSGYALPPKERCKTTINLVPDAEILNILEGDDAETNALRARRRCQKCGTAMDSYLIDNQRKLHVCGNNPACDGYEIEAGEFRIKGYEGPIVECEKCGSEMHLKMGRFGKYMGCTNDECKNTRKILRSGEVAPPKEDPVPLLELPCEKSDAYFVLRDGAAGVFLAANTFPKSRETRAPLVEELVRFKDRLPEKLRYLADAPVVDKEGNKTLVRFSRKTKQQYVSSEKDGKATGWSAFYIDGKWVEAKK
Cyclin-dependent kinase 5/CDK5 activator 1, sequence (Q00535 whole entry): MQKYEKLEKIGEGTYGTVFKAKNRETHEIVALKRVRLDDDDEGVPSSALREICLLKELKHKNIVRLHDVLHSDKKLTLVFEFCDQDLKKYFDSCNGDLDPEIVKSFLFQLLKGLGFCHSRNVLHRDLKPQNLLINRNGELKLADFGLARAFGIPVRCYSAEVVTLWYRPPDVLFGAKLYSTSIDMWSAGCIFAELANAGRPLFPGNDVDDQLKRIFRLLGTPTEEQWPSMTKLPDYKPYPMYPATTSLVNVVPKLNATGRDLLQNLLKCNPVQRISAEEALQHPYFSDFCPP
Cyclin-dependent kinase 5/CDK5 activator 1, sequence (Q15078 whole entry, further chain): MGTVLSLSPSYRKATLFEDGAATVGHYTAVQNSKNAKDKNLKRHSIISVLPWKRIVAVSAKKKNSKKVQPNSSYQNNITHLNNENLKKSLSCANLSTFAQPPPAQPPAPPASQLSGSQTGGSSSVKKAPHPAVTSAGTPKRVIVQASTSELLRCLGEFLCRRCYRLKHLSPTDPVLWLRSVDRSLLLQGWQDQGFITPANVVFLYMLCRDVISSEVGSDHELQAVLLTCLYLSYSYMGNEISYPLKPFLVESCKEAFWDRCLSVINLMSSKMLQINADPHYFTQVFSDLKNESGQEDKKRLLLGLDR
Large T antigen, sequence (P03070 whole entry): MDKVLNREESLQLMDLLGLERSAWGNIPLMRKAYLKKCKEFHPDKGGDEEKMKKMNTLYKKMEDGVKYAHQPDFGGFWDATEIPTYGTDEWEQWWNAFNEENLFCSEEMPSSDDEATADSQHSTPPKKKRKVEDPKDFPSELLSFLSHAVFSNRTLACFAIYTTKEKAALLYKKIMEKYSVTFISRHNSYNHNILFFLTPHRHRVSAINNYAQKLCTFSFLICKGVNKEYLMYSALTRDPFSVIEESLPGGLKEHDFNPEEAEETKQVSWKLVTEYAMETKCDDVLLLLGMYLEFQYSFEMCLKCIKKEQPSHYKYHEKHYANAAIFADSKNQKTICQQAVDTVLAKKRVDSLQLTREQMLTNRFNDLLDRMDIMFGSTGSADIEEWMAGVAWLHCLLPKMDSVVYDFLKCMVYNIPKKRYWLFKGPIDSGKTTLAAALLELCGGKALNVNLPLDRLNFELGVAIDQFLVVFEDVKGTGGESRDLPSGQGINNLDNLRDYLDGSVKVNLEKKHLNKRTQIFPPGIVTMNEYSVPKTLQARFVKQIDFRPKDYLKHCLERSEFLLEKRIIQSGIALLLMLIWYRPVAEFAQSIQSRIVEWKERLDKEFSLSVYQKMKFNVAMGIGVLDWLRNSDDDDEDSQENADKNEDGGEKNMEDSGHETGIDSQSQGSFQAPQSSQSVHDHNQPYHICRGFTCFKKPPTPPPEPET

On to `O=Nc1c(-c2cccc([N+](=O)[O-])c2)nc2ncccn12`, for which the half-maximal effective concentration (EC50) is > 160 µM (inconclusive) in [1], 1.11 µM (active) in [2], 0.828 µM (active) in test [3] and 0.826 µM (active) in test [4]. For the same compound, the IC50 at Large T antigen is 32.5 µM (active).

Regarding `COc1cc(/C=N/Nc2ccc([N+](=O)[O-])cn2)cc(OC)c1O`, the concentration at half-maximal activity (AC50) in test [5] was 0.367 µM (active); in test [6], 0.095 µM (active); in [7], 1.55 µM (active).

As for `O=C(C1CCCC1)N1CCN(c2ccnc3cc(Cl)ccc23)CC1`, the AC50 with Candida albicans [8] was 1.71 µM (active); in the test with Candida albicans [9], 0.566 µM (active); in the test with Candida albicans [10] it was 2.08 µM (active); in the test on Candida albicans [11], 2.01 µM (active).

As for `O=[N+]([O-])c1c(O)nc2ccc(Cl)cc2c1-c1ccccc1`, the IC50 with CHO-K1 is > 66.2 µM (inactive); in test [12] it was > 49.8 µM (inactive); in test [13] it was 0.915 µM (active); in test [14], > 49.8 µM (inactive); at Orexin receptor type 2 [15], > 88.8 µM (inactive); at Orexin receptor type 2 [16], 1.5 µM (active).

As for `CCOCCCNC(=O)CSCc1nc(-c2ccc(OCC)cc2)oc1C`, the IC50 was 51.9 µM (inactive) with Jurkat, > 80 µM (inactive) with HEK293 [17] and > 80 µM (inactive) with HEK293 [18].

Regarding `Cc1ccc(S(=O)(=O)N=C(N)Nc2nc(C)c3cc(C)ccc3n2)cc1`, on DNA topoisomerase, the AC50 is 14.2 µM (active).

For the compound `COc1ccc(OC)c(/C=C/c2nc3ccccc3nc2O)c1`, the IC50 was 28.4 µM (inactive) in the test on CHO and 8.5 µM (active) at Beta Lactamase. The EC50 in test [19] and in test [20] was > 99 µM (inactive) throughout.

Turning to `CC12CCC(=O)C=C1CCC1C2C(O)CC2(C)C1CCC2(O)C(=O)CO` (stereo not drawn), the AC50 in test [21] is > 52 µM (inactive).

In the case of `CNc1nc(SCc2ccccc2Cl)nc2c1CCCC2`, the CC50 is 9.68 µM (active) in [22], 49.2 µM (active) in test [25], 25.6 µM (active) in test [26] and 36.2 µM (active) in test [27]. In addition, the AC50 in test [23] is 8.66 µM (active). Also, the concentration giving a half-maximal response (EC50) in test [24] is 4.73 µM (active).
